Literature values in patent publication US12623013B2, “Compounds, systems, and techniques for removal of peripheral amyloid beta peptide with albumin binding competitors” (Fresenius Medical Care Holdings, Inc., priority 2021, dated 2026).

Biological target: human albumin (Homo sapiens, UniProt P02768)
Settings: read-out: binding constant to human albumin

Sequence of human albumin (P02768 25-609): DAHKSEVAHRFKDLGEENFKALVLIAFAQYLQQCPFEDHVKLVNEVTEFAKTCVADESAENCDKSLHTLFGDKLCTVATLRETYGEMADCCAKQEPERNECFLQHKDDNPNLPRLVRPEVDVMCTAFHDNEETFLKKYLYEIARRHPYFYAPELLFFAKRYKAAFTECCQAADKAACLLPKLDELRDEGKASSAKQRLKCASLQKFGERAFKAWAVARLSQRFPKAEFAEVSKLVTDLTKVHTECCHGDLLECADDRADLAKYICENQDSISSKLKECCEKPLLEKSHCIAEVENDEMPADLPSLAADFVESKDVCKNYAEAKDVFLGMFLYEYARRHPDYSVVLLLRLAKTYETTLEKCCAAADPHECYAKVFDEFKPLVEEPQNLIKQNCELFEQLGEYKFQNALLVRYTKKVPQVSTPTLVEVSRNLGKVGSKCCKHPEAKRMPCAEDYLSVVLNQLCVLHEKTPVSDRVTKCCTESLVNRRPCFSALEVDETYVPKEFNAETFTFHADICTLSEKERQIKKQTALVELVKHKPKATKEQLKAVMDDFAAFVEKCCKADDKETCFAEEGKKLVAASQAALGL

- Kd: ~15 nM
Substance: Ac-WWEQDRDWDFDVFGGGTP-NH2 [89D03]
